Results taken from patent publication US7517517B2 (Janssen Pharmaceutica N.V., priority 2002, dated 2009).

Legend:
mGlu1 receptor = mGlu1 receptor (Rattus norvegicus, UniProt P23385); assay: [3H]Compound A binding to rat brain membranes (cortex, hippocampus, striatum, cerebellum)
Method: Tissue preparation. Male Wistar rats (˜200 g) were sacrificed by decapitation. The brains were rapidly removed and cortex, hippocampus, striatum and cerebellum were immediately dissected. The fresh tissue was homogenized with an Ultra Turrax in 20 volumes of 50 mM Tris-HCl, pH 7.4 and tissue was centrifuged at 23,500 g for 10 min. After homogenisation using a DUAL homogeniser, membranes were washed twice by centrifugation at 23,500 g for 10 min. The final pellet was suspended in 10 volumes of 50 mM Tris-HCl, pH 7.4 and frozen at −80° C.
In vitro binding assay. After thawing, membranes from rat cortex, cerebellum, striatum and hippocampus were rehomogenized using a DUAL and suspended in ice-cold binding buffer containing 50 mM Tris-HCl, 1.2 mM MgCl2, 2 mM CaCl2, pH 7.4. The binding assay was carried out in a total volume of 0.5 ml containing 2.5 nM [^3H]Compound A and a membrane aliquot corresponding to 40 μg for cerebellar membranes, 60 μg for hippocampal membranes, 80 μg for striatal membranes or 150 μg for cortical membranes. […] After incubation for 30 min at 4° C., the labelled membranes were washed and harvested by rapid vacuum filtration over Whatman GF/C glass-fibre filters using a 40-well filtration manifold and radioactivity collected on the filters was counted as above.
Data analysis was performed using the GraphPad Prism program (GraphPad Prism Software, Inc., San Diego, Calif.). Saturation binding experiments were analysed using a non-linear regression analysis. Inhibition curves were fitted using non-linear regression analysis fitting the one-site competition equation: Y=Bottom+((Top−Bottom)/1+10^X-LogIC50). Ki values were calculated using the Cheng-Prusoff equation: Ki=IC50/[1+([C]/KD)] where C is the concentration of radioligand and KD is the dissociation constant of the radioligand (Cheng and Prusoff, Biochem. Pharmacol. 22, 3099-3108, 1973). The observed on (kob) and off (koff) rate were calculated from association-dissociation curves using the one-phase-exponential association and decay equations in the Prism program, respectively. kon was calculated by subtracting koff from kob and dividing by the radioligand concentration. The two-tailed Student's t-test was used for statistical evaluation of the binding data: * p<0.05, ** p<0.01 and *** p<0.001. The Dunnett's t-test following a 2-way analysis of variance (with as factors compound concentration and experiment) were used to analyse the data from the IP experiments.

[1] = membranes from rat cerebellum, mean ± SD, 3 experiments
[2] = membranes from rat cortex, mean ± SD, 3 experiments
[3] = membranes from rat hippocampus, mean ± SD, 3 experiments
[4] = membranes from rat striatum, mean ± SD, 3 experiments

Kd (mGlu1 receptor; all structures (cortex, hippocampus, striatum, cerebellum)): ~1 nM
non-specific binding compared to total binding (mGlu1 receptor; cerebellum): 10%
non-specific binding compared to total binding (mGlu1 receptor; cortex): 25%
number of sites labelled as % of the number found in the cerebellum (mGlu1 receptor; cortex): 11%
non-specific binding compared to total binding (mGlu1 receptor; hippocampus): 30%
number of sites labelled as % of the number found in the cerebellum (mGlu1 receptor; hippocampus): about 16%
Bmax (mGlu1 receptor; [1]): 4302 ± 2042 fmoles/mg protein
Kd (mGlu1 receptor; [1]): 0.99 ± 0.36 nM
Bmax (mGlu1 receptor; [2]): 471 ± 68 fmoles/mg protein
Kd (mGlu1 receptor; [2]): 1.04 ± 0.4 nM
Bmax (mGlu1 receptor; [3]): 688 ± 125 fmoles/mg protein
Kd (mGlu1 receptor; [3]): 0.72 ± 0.22 nM
Bmax (mGlu1 receptor; [4]): 741 ± 48 fmoles/mg protein
Kd (mGlu1 receptor; [4]): 0.84 ± 0.23 nM
non-specific binding compared to total binding (mGlu1 receptor; striatum): 25%
number of sites labelled as % of the number found in the cerebellum (mGlu1 receptor; striatum): about 16%
melting point: 195 °C
SMILES: [3H]c1ccc(CC(=O)c2ccc3nc4c(cc3c2)CCCO4)cc1 [[^3H]Compound A]
